# Laboratory results published in US20230277483A1, “COMPOSITIONS AND METHODS TO TREAT INFLAMMATION” (University of Iowa Research Foundation, priority 2022, published 2023).
# Key:
# [1] = tested on: human monocyte-derived macrophages (MDM) using THP-1 cells; assay: Proinflammatory cytokines after Pg-LPS challenge (qRT-PCR, ELISA); format: cell-based
# Description: Sg metabolites modulate proinflammatory cytokines in human periodontal associated cells in vitro. Sg were cultured in a total of 40 ml DMEM for 24 hrs. After 200 μl of Sg suspension reached 0.2 at OD600 value in a 96-well plate, the Sg metabolites were collected by centrifugation at 3000 g for 10 min and then filtered through a 0.22 μm filter. No toxicity of Sg metabolites was detected using an MTT assay on primary human bone marrow mesenchymal stromal cells (BMSCs) and primary human gingival fibroblasts (HGF) (data no shown). The modulation of Sg metabolites on inflammatory cytokines was tested using human monocyte-derived macrophages (MDM) and HGF. The MDM were generated by inducing a human macrophage cell line (THP-1) using PMA at 10 ng/ml. The MDM at 2×10^6 cells/per well and HGF at 2×10^4 cells/per well were cultured in 24-well plates using DMEM with 10% FBS and 1% PS. The Sg metabolites at 1 and 5% v/v were added and incubated for 24 hrs before challenging with Pg-LPS at 100 ng/ml.
# Human monocyte-derived macrophages (MDM) using THP-1 cells and HGF were cultured in a 24-well plate with DMEM and challenged with Pg-LPS at 100 ng/ml.
# (§1) In addition, freshly isolated epidydimal white adipose tissues (eWAT) from mice on a HFD for 16 weeks were minced and cultured in 24-well plates and treated with HCA at 0.5 and 1.0 μM in DMEM/F-12 containing 10% cosmic calf serum (CCS) and 1% penicillin-streptomycin (basal growth media, BGM). […] These preliminary data are strong evidence that Sg metabolites have the potential to modulate host inflammatory responses and attenuate inflammation.
# HCA promotes proliferation of health related bacteria and inhibits proliferation and attachment of periodontopathogenic bacteria. Promoting the growth of health-related commensal bacteria while inhibiting proliferation and attachment of pathogenic bacteria may be effective at preventing or treating periodontal inflammation. To determine if HCA has an effect on the growth properties of commensal bacteria and periodontopathogens, HCA at different concentrations was added to aerobic culture of S. mitis and S. oralis and anaerobic culture of T. denticola as described in our published manuscript (see detail in Shu et al, Journal of Periodontology, 2022). FIGS. 18A-C summarize the functions of HCA on the proliferation of specific commensal and pathogenic bacteria. […] Furthermore, the function of HCA on P. gingivalis attachment, a key parameter of adhesion and biofilm formation by periodontopathogenic bacteria, was investigated. […] Attachment measurements of P. gingivalis were performed based on our published studies (see detail in Shu et al, Journal of Periodontology, 2022). […] To test the biocompatibility and anti-inflammatory properties of HCA, human monocyte-derived macrophages (MDM) and gingival fibroblasts (HGF) were prepared as described in our previous studies. The cells were then treated with HCA from 0.1 to 50 μM. No toxicity was observed after treatment with different concentrations of HCA in either cell type using an MTT assay (FIGS. 19A and B, left column). The anti-inflammatory function of HCA on MDM and HGF after exposure to P. gingivalis lipopolysaccharide (PG-LPS) was investigated. […] HCA mitigates inflammation and affects the composition of microbiomes in vivo. Recent studies investigated whether HCA modulates periodontal inflammation using a mouse model. To induce periodontal inflammation, a total of 1 μl Pg-LPS at 10 μg/μl was directly injected twice a week into the interdental region between maxillary molars of C57BL/6J mice using a Hamilton1700 series syringe according to our previously published studies. 100 μl of HCA at 0.5 μM was administrated I.P. three time a week. […] It was also tested whether HCA affects the composition of the microbiome in vivo. For this purpose, high fat diet-induced obese (DIO) mice (The Jackson Laboratory) received I.P, administration of 100 μl of HCA at 0.2 and 0.5 μM three times a week for 3 weeks. […]
# Human MDM = assay: Anti-inflammatory miR expression after Pg-LPS challenge; format: cell-based
# Description: FIGS. 11A-11B. Sg metabolites upregulate anti-inflammatory miRs in human macrophages and HGF. A-B: Relative transcript changes of miR-200c, 146a, and 21 in HGF (A) and human MDM (B) treated with AICAR, MA, HCA, and HPLA 24 hours after Pg-LPS challenge; performed in duplicate.
# Human MDM was cultured in a 24-well plate and treated with HCA at different concentrations and Pg-LPS at 100 ng/mi for 24 hrs. […] (All data are presented as means±SEM. *: p<0.05 vs untreated, ANOVA).
# [2] = tested on: epidydimal white adipose tissues (eWAT); assay: eWAT explants from mice on a HFD for 16 weeks; format: cell-based, mouse; settings: HCA at 0.5 and 1.0 μM; 16 hours post treatment
# Description: as §1
smiles,measurement,setting,value
"O=C(O)CCCCCO [HCA, 6-hydroxycaproic acid]","transcripts of IL-1β, IL-6, and IL-8","[1]; HCA at 0.1 μM, 6 hours following PG-LPS challenge at 0.1 μg/mL",significantly downregulated
same,protein levels of IL-6 and IL-8,"[1]; HCA at 0.1 μM, supernatant, after 24 hrs",significantly reduced
same,"transcripts of IL-1β, 6, and 8","[1]; HCA at 0.1 and 1.0 μM, Pg-LPS at 100 ng/ml, after 6 hrs",significantly downregulated
same,proinflammatory cytokines (IL-6 transcript and IL-6 protein in supernatants),[1]; at 0.1 μg after Pg-LPS challenge,modulate
same,"anti-inflammatory miRs (miR-200c, 146a, and 21)",Human MDM; 24 hours after Pg-LPS challenge,upregulate
same,miR-200c expression,"Human MDM; HCA at 10 μM, Pg-LPS at 100 ng/ml for 24 hrs",significantly upregulated
same,protein level of IL-6 in cultured media,[2],significantly reduced
same,"transcripts of IL-6, IL-1β, and Nos2",[2],significantly reduced
